# Test results as given in patent publication US9751886B2, “4-amino-6-phenyl-6,7-dihydro[1,2,3]triazolo[1,5-A]pyrazine derivatives as inhibitors of beta-secretase (BACE)” (Janssen Pharmaceutica NV, priority 2013, dated 2017).
# Columns and labels:
# [1] = tested on: Abeta 1-42 secreted by human neuroblastoma SKNBE2 cells expressing wild type hAPP695; assay: BACE1 cellular αLisa assay in SKNBE2 cells, Abeta 1-42; assay type: cell-based; conditions: 18 hours incubation
# Method: (§1) In two αLisa assays the levels of Abeta total and Abeta 1-42 produced and secreted into the medium of human neuroblastoma SKNBE2 cells are quantified. The assay is based on the human neuroblastoma SKNBE2 expressing the wild type Amyloid Precursor Protein (hAPP695). The compounds are diluted and added to these cells, incubated for 18 hours and then measurements of Abeta 1-42 and Abeta total are taken. Abeta total and Abeta 1-42 are measured by sandwich αLisa. αLisa is a sandwich assay using biotinylated antibody AbN/25 attached to streptavidin coated beads and antibody Ab4G8 or cAb42/26 conjugated acceptor beads for the detection of Abeta total and Abeta 1-42 respectively. In the presence of Abeta total or Abeta 1-42, the beads come into close proximity. The excitation of the donor beads provokes the release of singlet oxygen molecules that trigger a cascade of energy transfer in the acceptor beads, resulting in light emission.
# [2] = biological target: recombinant BACE2 protein (Homo sapiens (Human), UniProt Q9Y5Z0); assay: BACE2 Biochemical FRET based assay; conditions: 0.4 μg/ml BACE2, 10 μM substrate, 450 min, pH 5.0
# From the text: (§2) This assay is a Fluorescence Resonance Energy Transfer Assay (FRET) based assay. The substrate for this assay contains the ‘Swedish’ Lys-Met/Asn-Leu mutation of the amyloid precursor protein (APP) beta-secretase cleavage site. This substrate also contains two fluorophores: (7-methoxycoumarin-4-yl) acetic acid (Mca) is a fluorescent donor with excitation wavelength at 320 nm and emission at 405 nm and 2,4-Dinitrophenyl (Dnp) is a proprietary quencher acceptor. […] Upon cleavage by the beta-secretase, the fluorophore Mca is separated from the quenching group Dnp, restoring the full fluorescence yield of the donor. The increase in fluorescence is linearly related to the rate of proteolysis.
# Briefly in a 384-well format recombinant BACE2 protein in a final concentration of 0.4 μg/ml is incubated for 450 minutes at room temperature with 10 μM substrate in incubation buffer (50 mM Citrate buffer pH 5.0, 0.05% PEG, no DMSO) in the absence or presence of compound. Next the amount of proteolysis is directly measured by fluorescence measurement at T=0 and T=450 (excitation at 320 nm and emission at 405 nm). Results are expressed in RFU (Relative Fluorescence Units), as difference between T450 and TO.
# [3] = tested on: Abeta total secreted by human neuroblastoma SKNBE2 cells expressing wild type hAPP695; assay: BACE1 cellular αLisa assay in SKNBE2 cells, Abeta total; assay type: cell-based; conditions: 18 hours incubation
# Method: as §1
# [4] = biological target: T1, recombinant BACE1 protein (Homo sapiens (Human), UniProt P56817); assay: BACE1 Biochemical FRET based assay - Method 2; conditions: 0.04 μg/ml BACE1, 20 μM substrate, 450 min, pH 5.0
# From the text: as §2, with “this assay is an APP derived 13 amino acids peptide that contains the” for “this assay contains the”, “cleavage by BACE1, the fluorophore” for “cleavage by the beta-secretase, the fluorophore”
# Briefly in a 384-well format recombinant BACE1 protein in a final concentration of 0.04 μg/ml is incubated for 450 minutes at room temperature with 20 μM substrate in incubation buffer (50 mM Citrate buffer pH 5.0, 0.05% PEG) in the presence of compound or DMSO. Next the amount of proteolysis is directly measured by fluorescence measurement (excitation at 320 nm and emission at 405 nm) at different incubation times (0, 30, 60, 90, 120 and 450 min). For every experiment a time curve (every 30 min between 0 min and 120 min) is used to determine the time where we find the lowest basal signal of the high control. The signal at this time (Tx) is used to subtract from the signal at 450 min. Results are expressed in RFU, as difference between T450 and Tx.
# [5] = biological target: T1, recombinant BACE1 protein; assay: BACE1 Biochemical FRET based assay - Method 1; conditions: 1 μg/ml BACE1, 10 μM substrate, 120 min, pH 5.0
# From the text: as §2, with “this assay is an APP derived 13 amino acids peptide that contains the” for “this assay contains the”, “cleavage by BACE1, the fluorophore” for “cleavage by the beta-secretase, the fluorophore”
# Briefly in a 384-well format recombinant BACE1 protein in a final concentration of 1 μg/ml is incubated for 120 minutes at room temperature with […] substrate in incubation buffer (40 mM Citrate buffer pH 5.0, 0.04% PEG, 4% DMSO) in the absence or presence of compound. Next the amount of proteolysis is directly measured by fluorescence measurement at T=0 and T=120 (excitation at 320 nm and emission at 405 nm). Results are expressed in RFU (Relative Fluorescence Units), as difference between T120 and TO.
# T1 sequence (P56817 46-501): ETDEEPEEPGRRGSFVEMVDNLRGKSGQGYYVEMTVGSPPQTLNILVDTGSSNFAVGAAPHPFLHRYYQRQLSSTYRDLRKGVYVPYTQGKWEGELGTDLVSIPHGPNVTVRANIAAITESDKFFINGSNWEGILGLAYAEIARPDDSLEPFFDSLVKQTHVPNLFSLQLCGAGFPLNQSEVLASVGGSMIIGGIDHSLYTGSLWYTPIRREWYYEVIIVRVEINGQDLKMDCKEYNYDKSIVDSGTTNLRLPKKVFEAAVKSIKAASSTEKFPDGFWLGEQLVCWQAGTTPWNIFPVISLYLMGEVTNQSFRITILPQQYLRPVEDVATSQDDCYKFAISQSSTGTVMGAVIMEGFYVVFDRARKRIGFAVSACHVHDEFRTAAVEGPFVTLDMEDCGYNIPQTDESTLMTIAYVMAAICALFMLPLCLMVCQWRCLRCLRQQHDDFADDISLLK
# Chain of recombinant BACE2 protein (Q9Y5Z0 63-518): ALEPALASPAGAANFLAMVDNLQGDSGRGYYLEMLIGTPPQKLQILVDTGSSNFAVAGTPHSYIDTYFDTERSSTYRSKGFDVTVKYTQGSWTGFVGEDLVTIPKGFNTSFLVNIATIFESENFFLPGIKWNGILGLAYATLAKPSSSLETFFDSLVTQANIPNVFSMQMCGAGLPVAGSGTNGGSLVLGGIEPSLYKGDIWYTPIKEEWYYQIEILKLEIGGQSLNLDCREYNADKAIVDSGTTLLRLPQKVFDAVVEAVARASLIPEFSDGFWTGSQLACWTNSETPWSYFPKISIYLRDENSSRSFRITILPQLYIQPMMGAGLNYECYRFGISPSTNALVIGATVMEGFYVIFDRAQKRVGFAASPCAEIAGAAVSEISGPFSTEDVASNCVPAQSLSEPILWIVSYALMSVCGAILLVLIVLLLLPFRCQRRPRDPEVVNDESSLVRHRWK
Structure (SMILES),Cellular αLisa assay in SKNBE2 cells Abeta 42 pIC50 [1],BACE2 Biochemical FRET based assay pIC50 [2],Cellular αLisa assay in SKNBE2 cells Abetatotal pIC50 [3],BACE1 Biochemical FRET based assay - Method 2 pIC50 [4],BACE1 Biochemical FRET based assay - Method 1 pIC50 [5],"IC50 ([1]; Homo sapiens, read-out: Cellular αLisa assay in SKNBE2 cells Abeta 42 pIC50 (converted)) [nM]","IC50 ([3]; Homo sapiens, read-out: Cellular αLisa assay in SKNBE2 cells Abetatotal pIC50 (converted)) [nM]",IC50 ([5]; read-out: BACE1 Biochemical FRET based assay - Method 1 pIC50 (converted)) [nM]
C[C@@]1(c2cc(NC(=O)c3ccc(Cl)cn3)ccc2F)Cn2nncc2C(N)=N1 [Compound 4],8.77,8.56,8.88,8.75,8.76,,,
"COc1cnc(C(=O)Nc2ccc(F)c([C@]3(C)Cn4nncc4C(N)=N3)c2)cn1 [Compound 3, N-{3-[(6R)-4-Amino-6-methyl-6,7-dihydro[1,2,3]triazolo[1,5-a]pyrazin-6-yl]-4-fluorophenyl}-5-methoxypyrazine-2-carboxamide]",,7.81,,8.69,,1.82,1.62,2.04
